Measurements as given in ChEMBL document CHEMBL2163215, “Mitigating hERG Inhibition: Design of Orally Bioavailable CCR5 Antagonists as Potent Inhibitors of R5 HIV-1 Replication” (ACS Med Chem Lett, 2012).
One block for each compound: values may come before it. Calls of active or inactive are those of the source. The calls are words filed in the database; no cut-off is given here.

Columns and labels:
hERG (KCNH2) = hERG (KCNH2) (Homo sapiens, UniProt Q12809); test: Inhibition of human recombinant hERG expressed in CHO cells at 10 uM by automated patch clamp assay; conditions: CHO cells expressing human recombinant hERG
Chain of hERG (KCNH2) (Q12809 whole entry): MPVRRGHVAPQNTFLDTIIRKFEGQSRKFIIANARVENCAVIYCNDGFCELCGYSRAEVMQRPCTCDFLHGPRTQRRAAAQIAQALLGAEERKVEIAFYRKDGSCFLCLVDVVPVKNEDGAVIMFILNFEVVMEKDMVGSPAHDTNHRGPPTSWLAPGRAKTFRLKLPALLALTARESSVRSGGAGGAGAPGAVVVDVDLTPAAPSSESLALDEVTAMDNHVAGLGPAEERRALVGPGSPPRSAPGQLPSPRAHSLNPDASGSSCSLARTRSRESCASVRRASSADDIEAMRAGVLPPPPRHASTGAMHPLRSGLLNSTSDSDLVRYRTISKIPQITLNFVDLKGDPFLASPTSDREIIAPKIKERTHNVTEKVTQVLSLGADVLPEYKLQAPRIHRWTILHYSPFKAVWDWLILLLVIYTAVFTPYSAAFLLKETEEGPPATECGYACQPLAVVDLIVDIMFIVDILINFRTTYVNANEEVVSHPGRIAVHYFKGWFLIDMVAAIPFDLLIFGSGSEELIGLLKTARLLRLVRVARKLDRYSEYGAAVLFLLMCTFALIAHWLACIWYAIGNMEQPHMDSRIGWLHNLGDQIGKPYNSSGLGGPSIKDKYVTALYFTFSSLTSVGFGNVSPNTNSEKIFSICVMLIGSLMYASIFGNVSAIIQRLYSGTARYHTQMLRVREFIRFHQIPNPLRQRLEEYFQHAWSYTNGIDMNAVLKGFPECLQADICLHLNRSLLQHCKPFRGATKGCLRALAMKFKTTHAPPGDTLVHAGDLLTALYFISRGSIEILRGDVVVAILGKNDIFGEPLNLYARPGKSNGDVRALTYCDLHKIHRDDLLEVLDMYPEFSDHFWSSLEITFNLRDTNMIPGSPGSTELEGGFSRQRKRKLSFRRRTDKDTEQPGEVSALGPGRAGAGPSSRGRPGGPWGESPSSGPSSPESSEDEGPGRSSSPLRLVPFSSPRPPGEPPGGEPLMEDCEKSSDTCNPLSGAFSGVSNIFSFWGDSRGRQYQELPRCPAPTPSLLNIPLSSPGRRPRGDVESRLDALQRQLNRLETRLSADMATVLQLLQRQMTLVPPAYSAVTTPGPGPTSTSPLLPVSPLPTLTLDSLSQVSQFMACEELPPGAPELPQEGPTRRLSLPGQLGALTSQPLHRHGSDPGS

[1] = (§1) Fraction unbound in human plasma after 5 hrs
[2] = Cytotoxicity against human PBMC
[3] = system: Human immunodeficiency virus 1; test: Antiviral activity against R5 tropic HIV1 Ba-L infected human PBMC assessed as inhibition of viral replication by p-24 antigen specific ELISA; type: functional, organism-based; conditions: Human immunodeficiency virus 1, Ba-L
Plasma = test: as §1; conditions: 5 h
[4] = target: C-C chemokine receptor type 2 (Homo sapiens) (UniProt P41597); conditions: at 5 µM
Chain of C-C chemokine receptor type 2 (Homo sapiens) (P41597 whole entry, looked up): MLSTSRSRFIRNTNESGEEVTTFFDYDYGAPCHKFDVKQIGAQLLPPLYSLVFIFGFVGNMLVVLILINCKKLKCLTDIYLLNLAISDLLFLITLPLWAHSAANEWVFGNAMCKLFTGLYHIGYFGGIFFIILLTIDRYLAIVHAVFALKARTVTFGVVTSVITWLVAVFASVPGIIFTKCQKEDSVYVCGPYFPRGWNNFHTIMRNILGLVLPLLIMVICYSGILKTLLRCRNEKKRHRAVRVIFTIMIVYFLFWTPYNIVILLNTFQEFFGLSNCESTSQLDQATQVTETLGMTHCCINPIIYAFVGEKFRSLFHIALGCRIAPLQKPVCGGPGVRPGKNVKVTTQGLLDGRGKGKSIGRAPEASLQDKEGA
Description: Antagonist activity at CCR2b at 5 uM by calcium flux assay

[5] = target: T1, C-C chemokine receptor type 1 (Homo sapiens) (UniProt P32246); conditions: at 5 µM
T1 sequence (whole entry): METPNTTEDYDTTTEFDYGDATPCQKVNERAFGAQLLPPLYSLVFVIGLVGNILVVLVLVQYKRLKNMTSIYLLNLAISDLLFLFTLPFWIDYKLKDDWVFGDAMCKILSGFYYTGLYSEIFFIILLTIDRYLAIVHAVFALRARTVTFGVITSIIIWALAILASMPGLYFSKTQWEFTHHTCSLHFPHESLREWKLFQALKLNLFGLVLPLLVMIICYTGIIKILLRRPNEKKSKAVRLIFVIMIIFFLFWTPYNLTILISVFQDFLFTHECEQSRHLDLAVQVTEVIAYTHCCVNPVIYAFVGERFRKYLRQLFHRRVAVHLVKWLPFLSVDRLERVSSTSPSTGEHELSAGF
Description: Antagonist activity at CCR1 at 5 uM by calcium flux assay

[6] = target: C-X-C chemokine receptor type 4 (Homo sapiens) (UniProt P61073); conditions: at 5 µM
Chain of C-X-C chemokine receptor type 4 (Homo sapiens) (P61073 whole entry): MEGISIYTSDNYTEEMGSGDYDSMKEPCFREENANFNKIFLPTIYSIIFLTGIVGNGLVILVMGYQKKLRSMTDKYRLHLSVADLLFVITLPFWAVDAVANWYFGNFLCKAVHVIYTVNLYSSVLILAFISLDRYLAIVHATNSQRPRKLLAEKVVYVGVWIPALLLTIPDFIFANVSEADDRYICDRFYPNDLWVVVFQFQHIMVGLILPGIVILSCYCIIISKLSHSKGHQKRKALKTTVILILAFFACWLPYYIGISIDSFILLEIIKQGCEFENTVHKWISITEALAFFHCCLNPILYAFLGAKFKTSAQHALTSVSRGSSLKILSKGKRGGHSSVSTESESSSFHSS
Description: Antagonist activity at CXCR4 at 5 uM by calcium flux assay

[7] = target: T2, C-X-C chemokine receptor type 2 (Homo sapiens) (UniProt P25025); conditions: at 5 µM
T2 sequence (whole entry): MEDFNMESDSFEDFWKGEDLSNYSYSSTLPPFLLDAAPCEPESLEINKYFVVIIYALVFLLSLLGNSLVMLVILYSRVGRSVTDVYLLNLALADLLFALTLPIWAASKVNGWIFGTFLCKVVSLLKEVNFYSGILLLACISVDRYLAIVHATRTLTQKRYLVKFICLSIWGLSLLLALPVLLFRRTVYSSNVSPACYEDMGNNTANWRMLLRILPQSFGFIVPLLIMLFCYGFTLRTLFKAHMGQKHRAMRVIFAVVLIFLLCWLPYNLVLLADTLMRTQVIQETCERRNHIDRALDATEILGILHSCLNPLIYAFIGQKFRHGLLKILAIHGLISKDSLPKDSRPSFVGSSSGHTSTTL
Description: Antagonist activity at CXCR2 at 5 uM by calcium flux assay

[8] = target: T3, C-X-C chemokine receptor type 1 (Homo sapiens) (UniProt P25024); conditions: at 5 µM
T3 sequence (whole entry): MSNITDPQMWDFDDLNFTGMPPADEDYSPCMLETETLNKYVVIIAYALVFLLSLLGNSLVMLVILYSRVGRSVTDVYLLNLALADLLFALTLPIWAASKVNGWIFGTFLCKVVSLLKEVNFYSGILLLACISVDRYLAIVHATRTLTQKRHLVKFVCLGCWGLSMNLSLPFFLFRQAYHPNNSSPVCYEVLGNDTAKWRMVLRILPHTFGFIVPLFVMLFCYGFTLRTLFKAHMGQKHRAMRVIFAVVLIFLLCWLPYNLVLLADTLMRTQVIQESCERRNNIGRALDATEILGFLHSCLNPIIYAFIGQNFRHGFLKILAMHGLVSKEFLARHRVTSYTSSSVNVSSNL
Description: Antagonist activity at CXCR1 at 5 uM by calcium flux assay

[9] = target: T4, C-C chemokine receptor type 4 (Homo sapiens) (UniProt P51679); conditions: at 5 µM
T4 sequence (whole entry): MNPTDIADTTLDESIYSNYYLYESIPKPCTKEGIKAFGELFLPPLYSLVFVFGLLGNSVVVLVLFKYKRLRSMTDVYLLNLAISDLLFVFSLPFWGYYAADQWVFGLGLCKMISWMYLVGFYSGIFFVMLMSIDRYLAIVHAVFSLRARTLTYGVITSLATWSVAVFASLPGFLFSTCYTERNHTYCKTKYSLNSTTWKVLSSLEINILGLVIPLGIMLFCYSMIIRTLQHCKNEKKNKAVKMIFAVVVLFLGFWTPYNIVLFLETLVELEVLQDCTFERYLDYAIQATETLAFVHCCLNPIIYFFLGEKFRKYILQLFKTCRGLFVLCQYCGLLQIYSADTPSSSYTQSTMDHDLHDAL
Description: Antagonist activity at CCR4 at 5 uM by calcium flux assay

[10] = Cardiotoxicity in dog purkinje fiber assessed as change in action potential amplitude at 10 uM measured at basic cycle length of 0.5 seconds
[11] = Cardiotoxicity in dog purkinje fiber assessed as change in action potential amplitude at 10 uM measured at basic cycle length of 1 second
[12] = Cardiotoxicity in dog purkinje fiber assessed as change in action potential amplitude at 10 uM measured at basic cycle length of 2 seconds
[13] = Cardiotoxicity in dog purkinje fiber assessed as change in resting membrane potential at 10 uM measured at basic cycle length of 0.5 seconds
[14] = Cardiotoxicity in dog purkinje fiber assessed as change in resting membrane potential at 10 uM measured at basic cycle length of 1 second
[15] = Cardiotoxicity in dog purkinje fiber assessed as change in resting membrane potential at 10 uM measured at basic cycle length of 2 seconds
[16] = Cardiotoxicity in dog purkinje fiber assessed as change in action potential duration at 90% at 10 uM measured at basic cycle length of 0.5 seconds
[17] = Cardiotoxicity in dog purkinje fiber assessed as change in action potential duration at 90% at 10 uM measured at basic cycle length of 1 second
[18] = Cardiotoxicity in dog purkinje fiber assessed as change in action potential duration at 90% at 10 uM measured at basic cycle length of 2 seconds
[19] = Cardiotoxicity in dog purkinje fiber assessed as change in action potential duration at 60% at 10 uM measured at basic cycle length of 0.5 seconds
[20] = Cardiotoxicity in dog purkinje fiber assessed as change in action potential duration at 60% at 10 uM measured at basic cycle length of 1 second
[21] = Cardiotoxicity in dog purkinje fiber assessed as change in action potential duration at 60% at 10 uM measured at basic cycle length of 2 seconds
[22] = Toxicity in rat administered for 7 days; conditions: in vivo
[23] = target: Voltage-gated inwardly rectifying potassium channel KCNH2 (Homo sapiens, UniProt Q12809); test: Inhibition of human recombinant hERG expressed in CHO cells by automated patch clamp assay
Chain of Voltage-gated inwardly rectifying potassium channel KCNH2 (Q12809 whole entry): as the sequence (Q12809 whole entry) above

[24] = Half life in dog at 5 umol/kg, iv; conditions: in vivo
[25] = Volume of distribution in dog at 5 umol/kg, iv; conditions: in vivo
[26] = Clearance in dog at 5 umol/kg, iv; conditions: in vivo
in vivo [27] = conditions: dog, po, 12.5 umol/kg
Description: Oral bioavailability in dog at 12.5 umol/kg

in vivo [28] = conditions: dog, plasma
in vivo [29] = conditions: dog, po

Compound: Cc1cc(Cl)nc(C)c1C(=O)NCC[C@@H](C)N1CCC(N(Cc2ccsc2)C(=O)CC2CCOCC2)CC1
inhibition at 10 µM (hERG (KCNH2)): 67%
fraction unbound at 5 h [1]: 0.8
CC50 [2]: > 35.6 µM
IC50 [3]: 0.0225 µM

Compound: COc1ccc(N(Cc2cnccc2C)C2CCN([C@H](C)CCNC(=O)c3c(C)ncnc3C)CC2)cc1
inhibition at 10 µM (hERG (KCNH2)): 58%
Fu (Plasma): 83%
CC50 [2]: > 38.3 µM
IC50 [3]: 1.83 µM

Compound: COc1ccc(N(Cc2ccsc2)C2CCN([C@H](C)CCNC(=O)c3c(C)ncnc3C)CC2)cc1
inhibition at 10 µM (hERG (KCNH2)): 97%
fraction unbound at 5 h [1]: 0.91
CC50 [2]: > 38.7 µM
IC50 [3]: 0.0659 µM

Compound: CONC(=O)N(Cc1ccsc1)C1CCN([C@H](C)CCNC(=O)c2c(C)cc(C(=O)NC(C)C)nc2C)CC1
IC50 [3]: 0.0048 µM
inhibition [4]: inactive
inhibition [5]: inactive
inhibition [6]: inactive
inhibition [7]: inactive
inhibition [8]: inactive
inhibition [9]: inactive

Compound: CNC(=O)N(Cc1ccsc1)C1CCN([C@H](C)CCNC(=O)c2c(C)cc(Cl)nc2C)CC1
IC50 [23]: 1.6 µM
inhibition at 10 µM (hERG (KCNH2)): 73%
fraction unbound at 5 h [1]: 0.46
CC50 [2]: > 40.6 µM
IC50 [3]: 0.0155 µM

Compound: Cc1cc(C#N)nc(C)c1C(=O)NCC[C@@H](C)N1CCC(N(Cc2ccsc2)C(=O)CC2CCOCC2)CC1
inhibition at 10 µM (hERG (KCNH2)): 61%
fraction unbound at 5 h [1]: 0.85
CC50 [2]: > 36.2 µM
IC50 [3]: 0.0161 µM

Compound: CONC(=O)N(Cc1ccsc1)C1CCN([C@H](C)CCNC(=O)c2c(C)cc(C#N)nc2Cl)CC1
fraction unbound at 5 h [1]: 0.75
CC50 [2]: > 38.5 µM
IC50 [3]: 0.0029 µM
Vd [25]: 6.3 L/kg
clearance [26]: 2.35 L/h/kg
bioavailability (in vivo [27]): 60%
AUC(0-inf) (in vivo [28]): 3240 nM·h
Cmax (in vivo [29]): 1.94 µM

Compound: Cc1cc(Cl)nc(C)c1C(=O)NCC[C@@H](C)N1CCC(N(Cc2ccsc2)C(=O)Nc2cccnc2)CC1
inhibition at 10 µM (hERG (KCNH2)): 20%
fraction unbound at 5 h [1]: 0.46
CC50 [2]: > 32.4 µM
IC50 [3]: 0.0344 µM

Continued by falling IC50 [3], values first:

fraction unbound at 5 h [1]: 0.4
IC50 [3]: 0.344 µM
Compound: Cc1cc(Cl)nc(C)c1C(=O)NCC[C@@H](C)N1CCC(N(Cc2ccsc2)C(=O)NO)CC1
inhibition at 10 µM (hERG (KCNH2)): 44%
CC50 [2]: > 38.5 µM

IC50 [3]: 0.138 µM
Compound: CC(=O)N(Cc1ccsc1)C1CCN([C@H](C)CCNC(=O)c2c(C)cc(Cl)nc2C)CC1

IC50 [3]: 0.038 µM
inhibition [4]: inactive
inhibition [5]: inactive
inhibition [6]: inactive
inhibition [7]: inactive
inhibition [8]: inactive
inhibition [9]: inactive
Compound: COCC(=O)N(Cc1ccsc1)C1CCN([C@H](C)CCNC(=O)c2c(C)cc(Cl)nc2C)CC1

fraction unbound at 5 h [1]: 0.43
IC50 [3]: 0.0213 µM
inhibition [4]: inactive
inhibition [5]: inactive
inhibition [6]: inactive
inhibition [7]: inactive
inhibition [8]: inactive
inhibition [9]: inactive
Compound: COCCONC(=O)N(Cc1ccsc1)C1CCN([C@H](C)CCNC(=O)c2c(C)cc(Cl)nc2C)CC1
Activity [10]: 1.2 mV
Activity [11]: 1.3 mV
Activity [12]: 2.4 mV
Activity [13]: -3.6 mV
Activity [14]: -2.8 mV
Activity [15]: -2.7 mV
Activity [16]: 10.5%
Activity [17]: 16.5%
Activity [18]: 22.6%
Activity [19]: 12.2%
Activity [20]: 18.1%
Activity [21]: 24.2%
CC50 [2]: > 34.4 µM
NOAEL at 168 h [22]: ≥ 400 mg/kg

IC50 [3]: 0.0148 µM
inhibition [4]: inactive
inhibition [5]: inactive
inhibition [6]: inactive
inhibition [7]: inactive
inhibition [8]: inactive
inhibition [9]: inactive
Compound: CONC(=O)N(Cc1ccsc1)C1CCN([C@H](C)CCNC(=O)c2c(C)cc(Cl)nc2C)CC1

fraction unbound at 5 h [1]: 0.31
IC50 [3]: 0.0073 µM
half-life [24]: 42 min
Vd [25]: 2.6 L/kg
clearance [26]: 2.42 L/h/kg
bioavailability (in vivo [27]): 7%
AUC(0-inf) (in vivo [28]): 370 nM·h
Cmax (in vivo [29]): 0.26 µM
Compound: CONC(=O)N(Cc1ccsc1)C1CCN([C@H](C)CCNC(=O)c2c(C)cc(Cl)[n+]([O-])c2Cl)CC1
inhibition at 10 µM (hERG (KCNH2)): 21%
CC50 [2]: > 38.5 µM
